# From PMC8470973, “Multi-Target Actions of Acridones from Atalantia monophylla towards Alzheimer’s Pathogenesis and Their Pharmacokinetic Properties” (Pharmaceuticals, 2021)
# How the values were obtained:
# [1] = ABTS radical scavenging assay; conditions: read-out: ABTS Scavenging Activity IC50; mean ± SD, triplicates; 10 to 100 µM tested
# Description: In the present study, the antioxidant activity of the 10 acridones was evaluated by ABTS radical scavenging assay and trolox was used as the reference compound.
# The antioxidant activity was determined by the decolonization of the radical cation of 2,2′-azinobis-(3-ethylbenzothiazoline-6-sulfonic acid) (ABTS^•+) [60]. […] Prior to the assay, the ABTS^•+ solution was diluted to get an absorbance of 0.70 ± 0.02 at 700 nm with ethanol. Trolox was used as an antioxidant standard. All test and standard compounds were dissolved in ethanol. Fifty microliters of each test compound was added to 100 µL of diluted ABTS^•+ solution to obtain final concentrations from 10 to 100 µM. […] Experiments were performed in independent triplicates.
# Aβ1-42 = Aβ1-42 (Homo sapiens, UniProt P05067); assay: Inhibition of self-mediated Aβ1-42 aggregation (thioflavin T assay)
# Description: The Aβ1-42 self-aggregation process was studied using the thioflavin-T assay [62, 63]. […] All test compounds were dissolved by DMSO.
# [2] = molecular target: T1, AChE from Electrophorus electricus (type VI-S) (Electrophorus electricus, UniProt O42275); assay: biochemical; conditions: Ellman's method, pH 7.4, acetylthiocholine 1 mM; mean ± SD; read-out: Anti-AChE IC50
# T1 construct: purchased type VI-S
# Description: It is well-known that the cholinergic system plays a vital role in the regulation of the learning, cognitive and memory processes. […] In the present study, all acridones were tested for their inhibition of AChE according to the method of Ellman and co-workers, using tacrine as a reference compound. […] Acridone consists of two benzene rings fused together with a keto group and a nitrogen atom at positions 9 and 10, respectively, resulting in a planar structure.
# AChE activity was evaluated and modified from Ellman’s method. All test compounds were prepared as stock solution in ethanol. […] Experiments were performed in triplicates.
# SH-SY5Y cells [3] = assay: Neuroprotection against H2O2-induced cell death in SH-SY5Y cells; assay type: cell-based, Human; conditions: 10 µM pre-treatment 24 h, then 250 µM H2O2 for 2 h
# Description: (§1) To examine the neuroprotective effects of acridones against H2O2, SH-SY5Y cells were pre-treated with 10 µM citrusinine II and glycosparvarine for 24 h before exposure to 250 µM H2O2 for 2 h. […] The cytotoxic effects of H2O2 were attenuated by pre-treating cells with citrusinine II and glycosparvarine (Figure 8). For evaluation of the neuroprotective effects of acridones against Aβ1-42 toxicity, SH-SY5Y cells were pre-treated with 10 µM citrusinine II and glycosparvarine for 24 h, followed by 25 µM Aβ1-42 for 24 h. Cell viability was determined by MTT assay.
# (§2) Human neuroblastoma cell line SH-SY5Y cells were cultured in Dulbecco’s modified Eagle medium (DMEM)/Ham’s F-12 medium supplemented with 10% fetal bovine serum (FBS), 100 U/mL penicillin and 100 µg/mL streptomycin. Cells were routinely cultured in 75 cm^2 cell culture flasks at 37 °C in 5% CO2. After that, cells were seeded at a density 5 × 10^5 cells/mL in 96-well plates and incubated for an additional 48 h before evaluation.
# For evaluation of the neuroprotective effect against H2O2 induced cell damage, cells were pretreated with test compounds or a reference standard at the concentration of 10 μM for 24 h. After treatment, the medium was removed, and cells were washed with phosphate buffer saline to remove unabsorbed test compounds. […] The cell viability was determined by MTT assay.
# [4] = tested on: SH-SY5Y neuroblastoma cells; assay: Cytotoxicity by MTT assay in SH-SY5Y cells; assay type: cell-based; conditions: 0.1–10 µM, 24 h incubation
# Description: […]. […] […]. Thus, the acridones were investigated for neuroprotective effects against H2O2 and Aβ1-42 induced toxicity in human SH-SY5Y neuroblastoma cells at the non-toxic concentration of 10 µM.
# as §2
# For the investigation of the toxicity effect of test compounds, cells were treated with test compounds at final concentrations of 0.1, 1, 10, 100 μM for 24 h. […] Then, culture media was replaced with a solution of MTT (0.5 mg/mL) at 37 °C for 2 h to determine survival of cells. Live cells containing formazan crystals were solubilized in 100 µL of DMSO. The absorption was measured by UV spectrometer ([…] Accureader M965) at 570 nm. The percentages of cell viability were calculated in relation to untreated cells.
# SH-SY5Y cells [5] = assay: Neuroprotection against Aβ1-42-induced cell death in SH-SY5Y cells; assay type: cell-based, Human; conditions: 10 µM pre-treatment 24 h, then 25 µM Aβ1-42 for 24 h
# Description: as §1, §2
# For neuroprotection against Aβ1–42 toxicity, the Aβ1–42 preparation was modified from Thiratmatrakul et al.. Briefly, lyophilized Aβ1–42 was reconstituted in sterile water and kept at –80 °C until use. […] Twenty-four hours later, cell viability was determined by the MTT colorimetric method. […]
# T1 sequence (O42275 24-633): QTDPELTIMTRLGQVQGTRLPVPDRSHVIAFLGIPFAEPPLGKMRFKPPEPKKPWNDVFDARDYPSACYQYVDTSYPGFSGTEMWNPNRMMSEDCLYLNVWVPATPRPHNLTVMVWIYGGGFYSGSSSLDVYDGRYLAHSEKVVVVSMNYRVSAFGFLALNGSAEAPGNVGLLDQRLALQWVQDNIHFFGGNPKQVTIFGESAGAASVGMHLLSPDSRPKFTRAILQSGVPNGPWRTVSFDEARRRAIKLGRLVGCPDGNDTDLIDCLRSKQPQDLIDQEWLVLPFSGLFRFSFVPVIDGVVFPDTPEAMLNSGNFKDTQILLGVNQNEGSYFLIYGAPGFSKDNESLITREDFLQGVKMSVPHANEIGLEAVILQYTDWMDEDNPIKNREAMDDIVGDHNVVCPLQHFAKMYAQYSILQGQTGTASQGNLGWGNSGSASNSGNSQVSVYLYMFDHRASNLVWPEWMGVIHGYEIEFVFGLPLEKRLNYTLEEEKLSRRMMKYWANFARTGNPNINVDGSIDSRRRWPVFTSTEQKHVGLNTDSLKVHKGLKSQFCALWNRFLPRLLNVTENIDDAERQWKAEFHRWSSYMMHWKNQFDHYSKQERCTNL
# Aβ1-42, sequence (P05067 672-713 limits assumed): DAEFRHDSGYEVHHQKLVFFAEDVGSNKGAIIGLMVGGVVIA
Compound,IC50 [1],IC50 (Aβ1-42),IC50 [2],Neuroprotective effect against H2O2-induced loss of cell viability (MTT) (SH-SY5Y cells [3]),Effect on viability of SH-SY5Y cells (MTT) [4],Neuroprotective effect against Aβ1-42 toxicity (MTT) (SH-SY5Y cells [5])
"CC(C)=CCc1c(O)c(CC=C(C)C)c2[nH]c3c(O)cccc3c(=O)c2c1O [Atalaphylline, atalaphylline]",46.2 ± 2.31 µM,6.58 ± 1.3 µM,58.3 ± 2.99 µM,,,
"CC(C)=CCc1c2c(c3[nH]c4c(O)cccc4c(=O)c3c1O)C=CC(C)(C)O2 [Atalaphyllinine, atalaphyllinine]",53 ± 1.83 µM,4.79 ± 0.67 µM,60.8 ± 4.62 µM,,,
"COc1cc2[nH]c3c(O)cccc3c(=O)c2c(O)c1CC=C(C)C [Buxifoliadine C, buxifoliadine C]",21.8 ± 2.71 µM,8.81 ± 3.62 µM,50.8 ± 3.74 µM,,,
"COc1c(O)c(OC)c2c(c1O)c(=O)c1cccc(O)c1n2C [Citruscridone, citruscridone]",31.7 ± 0.56 µM,8.61 ± 0.75 µM,47 ± 2.4 µM,,,
"COc1cc(O)c2c(=O)c3cccc(O)c3n(C)c2c1OC [Citrusinine I, citrusinine I]",33.77 ± 0.29 µM,7.05 ± 1.45 µM,35.4 ± 1.61 µM,,,
"COc1c(O)cc(O)c2c(=O)c3cccc(O)c3n(C)c12 [Citrusinine II, citrusinine II]",20 ± 3.89 µM,6.17 ± 2.29 µM,42.6 ± 4.81 µM,attenuated,no effect on viability,significantly protected
"COc1c(O)cc2c(c1O)c(=O)c1cccc(O)c1n2C [Glycosparvarine, glycosparvarine]",22.9 ± 2.24 µM,6.58 ± 2.03 µM,18.6 ± 2.77 µM,attenuated,no effect on viability,
CC(C)=CCc1c(O)c(CC=C(C)C)c2c(c1O)c(=O)c1cccc(O)c1n2C [N-methylatalaphylline],50.7 ± 1.02 µM,7.32 ± 0.09 µM,49.1 ± 2.75 µM,,,
CC(C)=CCc1c2c(c3c(c1O)c(=O)c1cccc(O)c1n3C)C=CC(C)(C)O2 [N-methylatalaphyllinine],57.5 ± 3.52 µM,6.14 ± 3.85 µM,54 ± 2.03 µM,,,
CC(C)=CCc1c2c(c(O)c3c(=O)c4cccc(O)c4n(C)c13)C=CC(C)(C)O2 [N-methylcycloatalaphylline A],79.6 ± 3.26 µM,5.84 ± 0.99 µM,66.6 ± 2.51 µM,,,
"Cc1c(C)c2c(c(C)c1O)CCC(C)(C(=O)O)O2 (stereo not drawn) [Trolox, reference compound]",58.9 ± 2.38 µM,,,,,
